According to ChEMBL document CHEMBL1201862, “PubChem BioAssay data set” (2004):
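A five-concentration, 48-hour dose response in 96-well plates underlies each endpoint, interpolated linearly between surrounding concentrations. GI50 = concentration required for 50% inhibition of growth.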 The source made the active and inactive calls. Rule as the data show it: active = GI50 up to about 1.1 µM and inactive = higher.

How the values were obtained:
Assay in all cases: NCI-60 cell line screen, 48 h
MOLT-4 = system: MOLT-4
SK-MEL-2 = system: SK-MEL-2
HL-60 = system: HL-60
M14 = system: M14
NCI-H23 = system: NCI-H23
ACHN = system: ACHN
SK-MEL-5 = system: SK-MEL-5
KM12 = system: KM12
UACC-257 = system: UACC-257
OVCAR-5 = system: OVCAR-5
OVCAR-8 = system: OVCAR-8
SK-MEL-28 = system: SK-MEL-28
K562 = system: K562
IGROV-1 = system: IGROV-1
NCI-H460 = system: NCI-H460
HCT-116 = system: HCT-116
LOX IMVI = system: LOX IMVI
SW-620 = system: SW-620
OVCAR-4 = system: OVCAR-4

SMILES | GI50 (MOLT-4) | GI50 (SK-MEL-2) | GI50 (HL-60) | GI50 (M14) | GI50 (NCI-H23) | GI50 (ACHN) | GI50 (SK-MEL-5) | GI50 (KM12) | GI50 (UACC-257) | GI50 (OVCAR-5) | GI50 (OVCAR-8) | GI50 (SK-MEL-28) | GI50 (K562) | GI50 (IGROV-1) | GI50 (NCI-H460) | GI50 (HCT-116) | GI50 (LOX IMVI) | GI50 (SW-620) | GI50 (OVCAR-4)
CC1C2(C)OC(=N)C(C#N)(C(C)O2)C1(C#N)C#N (stereo unspecified) | 36 µM (inactive) | 19.9 µM (inactive) | 14.1 µM (inactive) | 18.3 µM (inactive) | 28.8 µM (inactive) | 33.3 µM (inactive) | 13.1 µM (inactive) | 49.8 µM (inactive) | 20.2 µM (inactive) | 30.5 µM (inactive) | 31 µM (inactive) | 27.4 µM (inactive) | 34.9 µM (inactive) | 39.5 µM (inactive) | 19.6 µM (inactive) | 24.4 µM (inactive) | 19.5 µM (inactive) | 16.6 µM (inactive) | 
c1cc2nnsc2s1 | > 100 µM (inactive) | > 100 µM (inactive) | > 100 µM (inactive) | > 100 µM (inactive) | > 100 µM (inactive) | > 100 µM (inactive) | > 100 µM (inactive) | > 100 µM (inactive) | > 100 µM (inactive) | > 100 µM (inactive) | > 100 µM (inactive) | > 100 µM (inactive) | > 100 µM (inactive) | > 100 µM (inactive) | > 100 µM (inactive) |  | 60 µM (inactive) | 39.2 µM (inactive) | > 100 µM (inactive)
CC1=C(C(=O)CC(=O)C(=O)Nc2ccccc2C(F)(F)F)Sc2ccccc2N1 |  | > 100 µM (inactive) | 35.4 µM (inactive) | 52.4 µM (inactive) | 22.1 µM (inactive) | 73.3 µM (inactive) | 37.3 µM (inactive) | 39.1 µM (inactive) | 42.2 µM (inactive) | > 100 µM (inactive) | 50 µM (inactive) |  | 49.1 µM (inactive) | 44 µM (inactive) | 57.1 µM (inactive) | 34.8 µM (inactive) | 59.3 µM (inactive) | 33.7 µM (inactive) | 29.3 µM (inactive)
CN(C)CCCNC(=O)c1cc(NC(=O)CCCn2c3ccccc3c3ccccc32)cn1C | 11.4 µM (inactive) | 34.8 µM (inactive) | 22.5 µM (inactive) | 28.1 µM (inactive) | 31.8 µM (inactive) | 26.9 µM (inactive) | 16.7 µM (inactive) | 21.4 µM (inactive) |  | 73.6 µM (inactive) | 48.3 µM (inactive) | 49.7 µM (inactive) | 31.6 µM (inactive) | 6.64 µM (inactive) | 28.8 µM (inactive) | 25.9 µM (inactive) | 31 µM (inactive) | > 100 µM (inactive) | 43.1 µM (inactive)
COC(=O)c1ccc2c(c1)S/C(=C/c1ccc3ccc4cccc5ccc1c3c45)S2 | > 100 µM (inactive) | > 100 µM (inactive) | 20.7 µM (inactive) | 32.1 µM (inactive) | 19 µM (inactive) | > 100 µM (inactive) | > 100 µM (inactive) | 24.4 µM (inactive) | > 100 µM (inactive) | > 100 µM (inactive) | 31.6 µM (inactive) |  | 34.3 µM (inactive) | 46 µM (inactive) | 64.4 µM (inactive) | 95.9 µM (inactive) | > 100 µM (inactive) | 27.6 µM (inactive) | 41.4 µM (inactive)
CCOC(=O)c1ccc(/N=N/c2cc(C(=O)OCC)ccc2O)cc1 | 80.7 µM (inactive) |  | > 100 µM (inactive) | > 100 µM (inactive) | > 100 µM (inactive) | 84.3 µM (inactive) | > 100 µM (inactive) |  |  |  | > 100 µM (inactive) | > 100 µM (inactive) | > 100 µM (inactive) | > 100 µM (inactive) | > 100 µM (inactive) | > 100 µM (inactive) | > 100 µM (inactive) | > 100 µM (inactive) | 
CC(=O)OCCOCNC(=S)N/N=C/c1ccc(Br)s1 | > 26.1 µM (inactive) | > 100 µM (inactive) |  | > 100 µM (inactive) | > 100 µM (inactive) | > 100 µM (inactive) | > 100 µM (inactive) | > 100 µM (inactive) | > 100 µM (inactive) | > 100 µM (inactive) | > 100 µM (inactive) | > 100 µM (inactive) | > 20.8 µM (inactive) | > 100 µM (inactive) | 78.3 µM (inactive) | 55 µM (inactive) | 77.1 µM (inactive) | > 100 µM (inactive) | > 93.3 µM (inactive)
CS(=O)(=O)N(CCC#N)c1ccc(/C=N/NC(=O)CC(=O)Nc2cccc(Cl)c2)cc1 | > 100 µM (inactive) | > 100 µM (inactive) |  | > 100 µM (inactive) | > 100 µM (inactive) | > 100 µM (inactive) | > 100 µM (inactive) | > 100 µM (inactive) | > 100 µM (inactive) | > 100 µM (inactive) | > 100 µM (inactive) | > 100 µM (inactive) | > 100 µM (inactive) | > 100 µM (inactive) | > 100 µM (inactive) | > 100 µM (inactive) | > 100 µM (inactive) | > 100 µM (inactive) | > 100 µM (inactive)
CCOC(=O)CNc1nc(=O)c2c(=O)oc(Cl)cc2o1 | 12.6 µM (inactive) | 17.2 µM (inactive) |  | 17.9 µM (inactive) | 19.1 µM (inactive) | 13.5 µM (inactive) | 27.1 µM (inactive) | 22.1 µM (inactive) | 17.5 µM (inactive) | 18.5 µM (inactive) | 11.2 µM (inactive) | 22.9 µM (inactive) | 6.25 µM (inactive) | 10.1 µM (inactive) | 16.6 µM (inactive) | 12.1 µM (inactive) | 10.5 µM (inactive) | 8.81 µM (inactive) | 17.6 µM (inactive)
CCOC(OC(C)=O)[C@@H]1C=C[C@H](C)N(c2ccc([N+](=O)[O-])cc2)O1 (stereo partly specified) | 1.86 µM (inactive) | 4.26 µM (inactive) | 1.82 µM (inactive) | 3.06 µM (inactive) | 2.84 µM (inactive) | 5.13 µM (inactive) | 4 µM (inactive) | 2.5 µM (inactive) | 9.82 µM (inactive) | 2.76 µM (inactive) | 2.02 µM (inactive) | 3.01 µM (inactive) | 2.73 µM (inactive) | 7.98 µM (inactive) | 10.6 µM (inactive) | 1.25 µM (inactive) | 1.87 µM (inactive) | 2.46 µM (inactive) | 6.49 µM (inactive)
Nc1ccccc1C(=O)/C=C/c1ccccc1O | 31.3 µM (inactive) | 28.3 µM (inactive) | 22.8 µM (inactive) | 32.3 µM (inactive) | 56 µM (inactive) |  | 65 µM (inactive) | 31 µM (inactive) | 15.1 µM (inactive) | > 100 µM (inactive) | 50.8 µM (inactive) | > 100 µM (inactive) | 29.8 µM (inactive) | > 100 µM (inactive) | 67.1 µM (inactive) | 38.2 µM (inactive) | 43.8 µM (inactive) | 35.4 µM (inactive) | 48.6 µM (inactive)
CO[C@]12C[C@@H](CNC(=O)c3cc(Br)c[nH]3)O[C@H]1NC(=O)N2 | > 100 µM (inactive) | > 100 µM (inactive) | > 100 µM (inactive) | > 100 µM (inactive) | > 100 µM (inactive) | > 100 µM (inactive) | > 100 µM (inactive) | > 100 µM (inactive) | > 100 µM (inactive) | > 100 µM (inactive) | > 100 µM (inactive) | > 100 µM (inactive) | > 100 µM (inactive) | > 100 µM (inactive) | > 100 µM (inactive) | > 100 µM (inactive) |  | > 100 µM (inactive) | > 100 µM (inactive)
Cc1ccc(Nc2nc(N)nc3c2ncn3C2OC(CO)C(O)C2O)cc1 (stereo unspecified) | > 100 µM (inactive) | > 100 µM (inactive) | > 100 µM (inactive) | > 100 µM (inactive) | > 100 µM (inactive) | > 100 µM (inactive) | > 100 µM (inactive) | > 100 µM (inactive) | > 100 µM (inactive) | > 100 µM (inactive) | > 100 µM (inactive) | > 100 µM (inactive) | > 100 µM (inactive) | > 100 µM (inactive) |  | > 100 µM (inactive) | > 100 µM (inactive) | > 100 µM (inactive) | > 100 µM (inactive)
COC(=O)[C@H](Cc1c[nH]c2ccccc12)NC(=O)OCC1OC(n2cc(C)c(=O)[nH]c2=O)CC1N=[N+]=[N-] (stereo partly specified) | 33.6 µM (inactive) | > 100 µM (inactive) | > 100 µM (inactive) | > 100 µM (inactive) | 76 µM (inactive) | > 100 µM (inactive) | 31.8 µM (inactive) | > 100 µM (inactive) | 62.5 µM (inactive) | > 100 µM (inactive) | > 100 µM (inactive) |  | > 100 µM (inactive) | > 100 µM (inactive) | 49.4 µM (inactive) | > 100 µM (inactive) | 98.6 µM (inactive) | > 100 µM (inactive) | > 100 µM (inactive)
COc1cc(C2c3cc4c(cc3[C@@H](NCCN3CCCCC3)C3COC(=O)[C@H]23)OCO4)cc(OC)c1O (stereo partly specified) | < 0.01 µM (active) | 2.06 µM (inactive) | 0.0322 µM (active) | 0.324 µM (active) | 0.167 µM (active) | 0.671 µM (active) | 0.325 µM (active) | 1.08 µM (active) | 2.93 µM (inactive) | 1.69 µM (inactive) | 0.998 µM (active) | 2.42 µM (inactive) | 0.822 µM (active) | 1.46 µM (inactive) |  | 1.82 µM (inactive) | 0.204 µM (active) | 0.621 µM (active) | 0.27 µM (active)
